{"source": "patent US7727736B2", "about": "“Soluble phospholipids for use in clotting factor assays” (The University of North Carolina at Chapel Hill, priority 2003, dated 2010)", "key": {"[1]": {"molecular_target": "T1, FXa•FVa2 complex (Homo sapiens, UniProt P00742+P12259)", "T1 construct": "Human prothrombin and factor Xa; tissue Hematologic Technologies Inc. (factor Xa only); factor Xa purchased", "T1 sequence (P00742 41-179 limits assumed)": "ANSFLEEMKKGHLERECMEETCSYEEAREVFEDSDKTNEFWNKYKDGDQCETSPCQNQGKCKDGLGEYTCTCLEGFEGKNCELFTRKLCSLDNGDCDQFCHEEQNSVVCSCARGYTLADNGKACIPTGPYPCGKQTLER", "T1 sequence (P00742 235-488 limits assumed)": "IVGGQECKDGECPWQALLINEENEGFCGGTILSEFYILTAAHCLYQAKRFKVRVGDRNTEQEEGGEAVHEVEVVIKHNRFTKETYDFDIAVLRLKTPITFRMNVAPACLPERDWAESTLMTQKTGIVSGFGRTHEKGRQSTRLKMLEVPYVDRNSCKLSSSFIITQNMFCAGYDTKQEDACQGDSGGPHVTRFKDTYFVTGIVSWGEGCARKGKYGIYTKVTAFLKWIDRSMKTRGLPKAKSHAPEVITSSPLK", "T1 sequence (P12259 29-737 limits assumed)": "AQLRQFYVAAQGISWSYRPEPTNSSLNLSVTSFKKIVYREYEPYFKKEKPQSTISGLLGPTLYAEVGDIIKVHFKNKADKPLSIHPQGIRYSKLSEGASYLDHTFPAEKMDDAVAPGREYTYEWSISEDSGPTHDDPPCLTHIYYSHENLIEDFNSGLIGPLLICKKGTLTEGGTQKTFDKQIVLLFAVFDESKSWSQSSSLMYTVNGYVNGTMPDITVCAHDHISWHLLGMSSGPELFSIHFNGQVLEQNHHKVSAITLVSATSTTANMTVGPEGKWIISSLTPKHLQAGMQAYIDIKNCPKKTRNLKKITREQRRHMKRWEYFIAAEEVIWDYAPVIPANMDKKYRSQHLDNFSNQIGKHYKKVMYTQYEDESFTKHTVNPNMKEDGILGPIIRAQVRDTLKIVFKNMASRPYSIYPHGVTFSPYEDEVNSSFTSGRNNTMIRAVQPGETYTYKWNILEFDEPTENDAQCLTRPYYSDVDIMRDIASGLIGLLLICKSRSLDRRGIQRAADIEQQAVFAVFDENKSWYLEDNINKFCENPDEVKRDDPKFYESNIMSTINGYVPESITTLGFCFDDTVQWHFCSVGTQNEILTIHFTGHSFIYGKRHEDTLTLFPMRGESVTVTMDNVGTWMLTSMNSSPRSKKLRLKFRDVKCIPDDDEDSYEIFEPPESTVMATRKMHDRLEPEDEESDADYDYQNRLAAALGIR", "T1 sequence (P12259 1574-2224 limits assumed)": "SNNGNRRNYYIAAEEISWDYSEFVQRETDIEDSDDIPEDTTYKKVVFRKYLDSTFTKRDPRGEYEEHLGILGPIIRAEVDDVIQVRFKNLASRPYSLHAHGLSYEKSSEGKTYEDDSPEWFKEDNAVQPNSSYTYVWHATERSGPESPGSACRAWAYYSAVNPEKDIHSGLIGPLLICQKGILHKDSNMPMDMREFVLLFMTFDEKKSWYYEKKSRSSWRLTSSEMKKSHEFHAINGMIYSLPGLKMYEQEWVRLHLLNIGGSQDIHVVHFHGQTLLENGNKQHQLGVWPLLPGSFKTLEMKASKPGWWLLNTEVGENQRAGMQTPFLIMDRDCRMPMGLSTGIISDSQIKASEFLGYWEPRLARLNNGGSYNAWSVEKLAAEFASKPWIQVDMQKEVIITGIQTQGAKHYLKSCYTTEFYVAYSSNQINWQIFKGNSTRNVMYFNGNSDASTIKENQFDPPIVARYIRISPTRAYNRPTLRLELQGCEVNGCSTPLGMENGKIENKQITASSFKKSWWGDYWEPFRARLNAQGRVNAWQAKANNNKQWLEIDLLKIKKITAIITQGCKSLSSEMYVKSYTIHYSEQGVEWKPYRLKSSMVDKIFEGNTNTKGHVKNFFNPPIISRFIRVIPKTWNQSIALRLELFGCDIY", "test": "Native gel electrophoresis (Ferguson analysis), C6PS bound to FXa•FVa2 complex", "type": "binding", "procedure": "A mixture of FXa and FVa2 in the absence (lane 1 of gel) and presence (lane 2) of 400 μM C6PS (5 mM Ca^2+) was analyzed by native polyacrylamide gel electrophoresis on a standard 6% gel (Majumder, et al. (2002) supra). A log-log plot of retardation coefficients versus molecular mass of different reference proteins is also shown (open circles). Points have been added to this plot for retardation coefficients obtained for FXa (triangle) or FVa2 (4-point star) in the absence of C6PS, and of the FXa•FVa2 complex (5-point star) formed in the presence of C6PS. The apparent molecular weight of the complex, as identified from this plot, was 224±3.7 kilodaltons.\nNative Gel Electrophoresis. This method has been used to document the association of blood coagulation proteins in solution (Majumder, et al. (2002) supra; Majumder, et al. (2003) supra). […] Protein retardation coefficients, which depend to a good approximation only on the hydrodynamic size and shape of the protein, were determined for both the marker and unknown proteins (Ferguson (1964) Metabolism 13:985-1002). A log-log plot of the retardation coefficient against the molecular weights of the marker proteins produced a linear curve from which the molecular weight of the FVa•FXa complex was determined from its measured retardation coefficient (Bryan (1977) Anal. Biochem. 78(2):513-9). […]"}, "[2]": {"molecular_target": "T2, factor IXa (Homo sapiens, UniProt P00740)", "T2 construct": "intrinsic tryptophan fluorescence of factor IXa", "T2 sequence (P00740 47-191 limits assumed)": "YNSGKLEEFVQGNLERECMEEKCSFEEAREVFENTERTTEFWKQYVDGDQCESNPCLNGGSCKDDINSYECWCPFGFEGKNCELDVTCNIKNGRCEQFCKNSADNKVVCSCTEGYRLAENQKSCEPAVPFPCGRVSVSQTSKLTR", "T2 sequence (P00740 227-461 limits assumed)": "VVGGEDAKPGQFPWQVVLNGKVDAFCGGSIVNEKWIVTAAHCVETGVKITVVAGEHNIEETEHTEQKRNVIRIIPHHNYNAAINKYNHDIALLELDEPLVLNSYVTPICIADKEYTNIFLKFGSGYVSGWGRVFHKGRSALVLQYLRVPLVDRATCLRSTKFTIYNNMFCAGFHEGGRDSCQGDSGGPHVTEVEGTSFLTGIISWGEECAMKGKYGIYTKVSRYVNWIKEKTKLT", "test": "Amidolytic activity of factor IXa with increasing C6PS", "type": "biochemical", "conditions": "300 nM factor IXa, substrate Leu-PHG-Arg-pNA-AcOH; read-out: Kd from amidolytic activity of factor IXa", "procedure": "The assay was conducted in the presence of 1 mM Leu-PHG-Arg-pNA.AcOH and increasing concentrations of C6PS."}, "[3]": {"molecular_target": "T2, factor IXa", "test": "Activation of factor X by factor IXa (proteolytic activity)", "type": "biochemical", "procedure": "The assay was conducted in the presence of increasing concentrations of C6PS.\nC6PS promotes the proteolytic activation of factor X by factor IXa, just as it promotes the proteolytic activation of prothrombin by factor Xa. […] The rate of activation of factor X by factor IXa in the presence of 700 μM C6PS was monitored at different concentrations of factor X (FIG. 11). The KM for this reaction was 300 nM, which is the same as that obtained with 20% PS/PC membranes (Larson et al. (1996) J. Biol. Chem. 271 3869)."}, "[4]": {"molecular_target": "T3, factor VIIIa-IXa complex (Homo sapiens, UniProt P00451+P00740)", "T3 construct": "2.5 nM factor IXa and 10 nM factor VIIIa", "T3 sequence (P00740 47-191 limits assumed)": "as the sequence (P00740 47-191 limits assumed) above", "T3 sequence (P00740 227-461 limits assumed)": "as the sequence (P00740 227-461 limits assumed) above", "T3 sequence (P00451 20-391 limits assumed)": "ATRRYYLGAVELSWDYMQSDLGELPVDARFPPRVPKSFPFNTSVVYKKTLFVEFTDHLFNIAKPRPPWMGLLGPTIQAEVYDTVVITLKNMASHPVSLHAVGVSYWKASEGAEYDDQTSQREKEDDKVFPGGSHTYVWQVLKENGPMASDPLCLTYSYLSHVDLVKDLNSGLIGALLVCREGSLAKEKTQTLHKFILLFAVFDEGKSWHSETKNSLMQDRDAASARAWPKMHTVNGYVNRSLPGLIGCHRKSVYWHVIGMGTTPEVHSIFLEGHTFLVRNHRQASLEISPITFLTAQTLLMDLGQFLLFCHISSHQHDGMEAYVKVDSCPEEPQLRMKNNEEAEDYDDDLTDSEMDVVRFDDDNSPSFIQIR", "T3 sequence (P00451 392-759 limits assumed)": "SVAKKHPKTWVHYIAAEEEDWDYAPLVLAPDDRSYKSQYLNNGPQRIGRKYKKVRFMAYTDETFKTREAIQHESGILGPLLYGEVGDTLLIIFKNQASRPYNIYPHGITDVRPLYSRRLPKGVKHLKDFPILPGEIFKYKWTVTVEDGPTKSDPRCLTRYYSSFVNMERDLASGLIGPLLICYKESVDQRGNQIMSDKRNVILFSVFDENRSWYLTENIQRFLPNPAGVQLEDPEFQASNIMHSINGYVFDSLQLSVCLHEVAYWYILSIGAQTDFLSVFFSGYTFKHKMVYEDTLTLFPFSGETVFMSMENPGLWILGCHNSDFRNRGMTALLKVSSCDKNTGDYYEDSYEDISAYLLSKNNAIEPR", "T3 sequence (P00451 1709-2351 limits assumed)": "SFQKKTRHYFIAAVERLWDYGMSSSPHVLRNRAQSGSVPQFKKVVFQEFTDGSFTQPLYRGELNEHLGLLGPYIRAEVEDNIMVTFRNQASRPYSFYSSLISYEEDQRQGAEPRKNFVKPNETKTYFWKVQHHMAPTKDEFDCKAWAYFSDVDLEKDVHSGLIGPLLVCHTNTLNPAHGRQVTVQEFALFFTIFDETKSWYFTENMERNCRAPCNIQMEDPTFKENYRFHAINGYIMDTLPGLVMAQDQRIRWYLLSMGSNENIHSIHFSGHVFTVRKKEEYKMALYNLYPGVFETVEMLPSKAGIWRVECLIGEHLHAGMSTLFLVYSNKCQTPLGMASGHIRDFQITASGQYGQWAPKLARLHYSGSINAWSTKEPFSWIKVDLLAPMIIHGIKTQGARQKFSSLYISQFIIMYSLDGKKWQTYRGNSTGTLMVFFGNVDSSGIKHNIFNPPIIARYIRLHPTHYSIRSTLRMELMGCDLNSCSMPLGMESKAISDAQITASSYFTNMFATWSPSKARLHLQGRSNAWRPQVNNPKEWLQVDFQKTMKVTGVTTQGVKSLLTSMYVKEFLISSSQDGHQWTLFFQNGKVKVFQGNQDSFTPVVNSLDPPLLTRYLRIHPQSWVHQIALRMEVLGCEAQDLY", "test": "Activation of factor X by factor IXa and factor VIIIa", "type": "biochemical", "conditions": "in the presence of C6PS", "procedure": "The rate of activation of factor X by 2.5 nM factor IXa and 10 nM factor VIIIa in the presence of 600 μM C6PS was monitored at different concentrations of factor X (FIG. 13). The KM for this reaction was 66 nM, which is similar to that obtained with 30% PS/PC membranes (45 nM) (Larson et al. (1996) J. Biol. Chem. 271 3869)."}, "[5]": {"molecular_target": "APC (Homo sapiens, UniProt P04070)", "sequence (P04070 43-197 limits assumed)": "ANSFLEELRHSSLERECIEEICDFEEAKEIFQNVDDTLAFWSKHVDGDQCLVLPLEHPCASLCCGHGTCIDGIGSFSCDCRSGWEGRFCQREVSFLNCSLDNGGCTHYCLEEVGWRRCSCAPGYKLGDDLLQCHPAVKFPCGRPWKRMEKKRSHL", "sequence (P04070 212-461 limits assumed)": "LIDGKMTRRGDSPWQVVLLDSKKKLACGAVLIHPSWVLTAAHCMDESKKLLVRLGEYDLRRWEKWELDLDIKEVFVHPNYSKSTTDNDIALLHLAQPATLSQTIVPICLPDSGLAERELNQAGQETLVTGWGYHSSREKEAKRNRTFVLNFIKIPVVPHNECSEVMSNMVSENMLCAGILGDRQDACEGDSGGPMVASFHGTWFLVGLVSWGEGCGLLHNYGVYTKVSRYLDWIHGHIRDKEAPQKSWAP", "test": "SPS binding to APC", "conditions": "other experiments", "from_the_text": "Proteolysis at Arg^506 leads to partial inactivation, but proteolysis at Arg^306 is necessary for full inactivation (Kalafatis & Mann (1993) J. Biol. Chemistry 268 27246; Nicolaes et al., (1995) J. Biol. Chemistry (1995) 270 21158). […] The rate of proteolysis of the bond at Arg^306 increased from undetectable to a value of kcat/KM=3-3.5×10^6 M^−1sec^−1, identical to the rate reported with PS-containing membranes."}, "[6]": {"conditions": "pure C6PS; cited from earlier work"}}, "data": [{"smiles": "CCCCCC(=O)OC[C@H](COP(=O)(O)OC[C@H](N)C(=O)O)OC(=O)CCCCC", "note": "[C6PS, 1,2-dicaproyl-sn-glycero-3-phospho-L-serine]", "values": [{"measurement": "C6PS in stoichiometry Xa:Va2:C6PS of the complex from molecular mass", "setting": "[1]; 400 μM C6PS", "result": "3.4±7.7"}, {"measurement": "most likely number of C6PS molecules bound to the complex", "setting": "[1]; based on equilibrium dialysis stoichiometries", "result": "5-6 molecules"}, {"measurement": "Kd", "setting": "[2]", "result": 130, "unit": "µM"}, {"measurement": "Kd", "setting": "[3]; 10 nM IXa, 5 mM calcium, read-out: Kd from proteolytic activity of IXa (hyperbolic fit)", "result": 164, "unit": "µM"}, {"measurement": "rate of activation of factor X by factor IXa compared with 20% PS/PC membranes", "setting": "[3]; 700 μM C6PS", "result": "identical"}, {"measurement": "fold reduction of KM for factor X activation with the addition of VIIIa", "setting": "[4]", "result": 5, "unit": "fold"}, {"measurement": "Kd", "setting": "[5]", "result": "~1", "unit": "µM"}, {"measurement": "monomers in minimal micelle predicted for C6PS", "setting": "[6]", "result": "~200", "unit": "monomers"}]}]}
